In ChEMBL document CHEMBL1125575, “2-[(2-pyridylmethyl)sulfinyl]-1H-thieno[3,4-d]imidazoles. A novel class of gastric H+/K(+)-ATPase inhibitors” (J Med Chem, 1992):

How the values were obtained:
[1] = species on record: Oryctolagus cuniculus; test: cells; assay type: functional, organism-based, Stomach
Description: In vitro inhibition of 14C amino-pyrine uptake was determined in isolated rabbit gastric glands after dbcAMP stimulation

[2] = species on record: Canis familiaris; test: animal or person; conditions: Canis lupus familiaris, Stomach, intraduodenal, read-out: Inhibition
[3] = species on record: Rattus norvegicus; test: animal or person; conditions: Stomach, iv, read-out: Inhibition
[4] = physchem
Description: pKa value of the compound

[5] = animal or person; conditions: Canis lupus familiaris, Stomach, iv, read-out: Inhibition
[6] = biological target: Potassium-transporting ATPase alpha chain 1 (Sus scrofa, UniProt P19156)
Sequence of Potassium-transporting ATPase alpha chain 1 (P19156 whole entry): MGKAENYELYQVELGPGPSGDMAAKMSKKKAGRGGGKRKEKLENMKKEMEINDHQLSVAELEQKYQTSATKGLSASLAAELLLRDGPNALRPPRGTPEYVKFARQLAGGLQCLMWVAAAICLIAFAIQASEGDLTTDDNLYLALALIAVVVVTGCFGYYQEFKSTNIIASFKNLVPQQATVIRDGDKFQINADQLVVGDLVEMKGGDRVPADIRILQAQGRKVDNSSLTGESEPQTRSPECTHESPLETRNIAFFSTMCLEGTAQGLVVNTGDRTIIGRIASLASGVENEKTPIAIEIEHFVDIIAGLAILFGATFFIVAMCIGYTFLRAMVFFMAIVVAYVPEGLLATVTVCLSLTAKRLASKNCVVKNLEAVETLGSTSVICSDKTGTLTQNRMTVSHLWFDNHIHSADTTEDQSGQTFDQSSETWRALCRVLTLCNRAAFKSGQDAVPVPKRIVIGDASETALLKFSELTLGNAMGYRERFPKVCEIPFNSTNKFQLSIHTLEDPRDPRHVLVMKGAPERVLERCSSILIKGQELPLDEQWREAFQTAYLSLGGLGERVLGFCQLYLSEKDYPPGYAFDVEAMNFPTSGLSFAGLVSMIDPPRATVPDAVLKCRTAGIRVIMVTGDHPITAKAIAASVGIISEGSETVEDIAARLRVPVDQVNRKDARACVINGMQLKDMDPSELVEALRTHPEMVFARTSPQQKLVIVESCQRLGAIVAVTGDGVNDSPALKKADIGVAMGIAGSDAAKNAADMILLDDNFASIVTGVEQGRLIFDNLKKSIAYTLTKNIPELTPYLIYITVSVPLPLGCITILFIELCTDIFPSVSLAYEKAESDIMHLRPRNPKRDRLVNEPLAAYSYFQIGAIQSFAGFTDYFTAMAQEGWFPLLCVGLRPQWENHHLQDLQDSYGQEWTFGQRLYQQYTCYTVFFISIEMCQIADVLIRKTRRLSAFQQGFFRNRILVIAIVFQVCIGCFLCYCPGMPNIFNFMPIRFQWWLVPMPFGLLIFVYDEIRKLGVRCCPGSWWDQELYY
Description: In vitro inhibitory concentration against H+/K+ ATPase from pig stomach by probit analysis

SMILES	IC50 ([1]; Stomach)	inhibition in vivo at 0.5 mg/kg [3]	inhibition in vivo at 0.3 mg/kg [5]	also measured
[O-][S+](Cc1cc(OCC(F)(F)C(F)(F)F)c(Cl)cn1)c1nc2cscc2[nH]1 (stereo not given)	–	38%	–	–
CCCOc1ccnc(C[S+]([O-])c2nc3cscc3[nH]2)c1Cl (stereo not given)	3 µM	–	–	–
COc1ccnc(C[S+]([O-])c2nc3cscc3[nH]2)c1 (stereo not given)	19 µM	82%	84%	pKa [4]: 4.16
Cc1cccc(C[S+]([O-])c2nc3cscc3[nH]2)n1 (stereo not given)	300 µM	–	–	–
[O-][S+](Cc1ncccc1OC(F)F)c1nc2cscc2[nH]1 (stereo not given)	1000 µM	–	–	–
COC(=O)c1sc2[nH]c([S+]([O-])Cc3ccccn3)nc2c1C(=O)OC (stereo not given)	1000 µM	–	–	–
Cc1sc(C)c2[nH]c([S+]([O-])Cc3cc(OCC(F)(F)C(F)(F)C(F)(F)F)ccn3)nc12 (stereo not given)	26 µM	–	–	–
[O-][S+](Cc1cc(OCc2ccccc2)ccn1)c1nc2cscc2[nH]1 (stereo not given)	0.5 µM	–	–	–
[O-][S+](Cc1cc(OCC(F)(F)C(F)(F)C(F)(F)C(F)F)ccn1)c1nc2cscc2[nH]1 (stereo not given)	3 µM	–	–	IC50 [6]: 2 µM
COc1ccnc(C[S+]([O-])c2nc3c(C)sc(C)c3[nH]2)c1 (stereo not given)	12 µM	–	66%	–
COc1c(OCc2ccc(C(F)(F)F)cc2)ccnc1C[S+]([O-])c1nc2cscc2[nH]1 (stereo not given)	0.5 µM	51%	–	inhibition in vivo at 1 mg/kg [2]: 91%
[O-][S+](Cc1cc(OCc2cc(F)cc(F)c2)ccn1)c1nc2cscc2[nH]1 (stereo not given)	0.7 µM	70%	–	inhibition in vivo at 1 mg/kg [2]: 96%
Cc1sc(C)c2[nH]c([S+]([O-])Cc3cc(OCC(F)(F)F)ccn3)nc12 (stereo not given)	3.7 µM	–	54%	IC50 [6]: 2 µM
COc1c(C)cnc(C[S+]([O-])c2nc3cscc3[nH]2)c1Cl (stereo not given)	–	43%	52%	–
[O-][S+](Cc1cc(Oc2cccc(C(F)(F)F)c2)ccn1)c1nc2cscc2[nH]1 (stereo not given)	2.2 µM	64%	–	inhibition in vivo at 1 mg/kg [2]: 66%
[O-][S+](Cc1nccc(OCC(F)(F)F)c1Cl)c1nc2cscc2[nH]1 (stereo not given)	1000 µM	–	–	–
[O-][S+](Cc1cc(OCc2ccc(C(F)(F)F)cc2)ccn1)c1nc2cscc2[nH]1 (stereo not given)	0.6 µM	80%	–	inhibition in vivo at 1 mg/kg [2]: 94%; pKa [4]: 3.74
[O-][S+](Cc1cc(OCC(F)(F)F)ccn1)c1nc2cscc2[nH]1 (stereo not given)	3 µM	96%	62%	inhibition in vivo at 1 mg/kg [2]: 73%; pKa [4]: 3.83
CC(C)Oc1ccnc(C[S+]([O-])c2nc3cscc3[nH]2)c1Cl (stereo not given)	1 µM	80%	87%	–
Cc1sc(C)c2[nH]c([S+]([O-])Cc3cc(OCC(F)(F)C(F)(F)F)ccn3)nc12 (stereo not given)	1 µM	–	–	–
COCCOc1ccnc(C[S+]([O-])c2nc3cscc3[nH]2)c1Cl (stereo not given)	–	63%	–	–
[O-][S+](Cc1cc(OC(F)F)ccn1)c1nc2cscc2[nH]1 (stereo not given)	–	–	–	IC50 [1]: 1000 µM

SMILES	IC50 ([1]; Stomach)	inhibition in vivo at 0.5 mg/kg [3]	inhibition in vivo at 0.3 mg/kg [5]	also measured
[O-][S+](Cc1cc(Oc2ccc(F)cc2)ccn1)c1nc2cscc2[nH]1 (stereo not given)	4 µM	84%	85%	inhibition in vivo at 1 mg/kg [2]: 97%
COc1c(OCc2ccc(F)cc2)ccnc1C[S+]([O-])c1nc2cscc2[nH]1 (stereo not given)	0.3 µM	78%	73%	inhibition in vivo at 1 mg/kg [2]: 76%
[O-][S+](Cc1ccc(Cl)cn1)c1nc2cscc2[nH]1 (stereo not given)	1000 µM	26%	–	–
COc1c(OCC(F)(F)C(F)(F)C(F)(F)F)ccnc1C[S+]([O-])c1nc2cscc2[nH]1 (stereo not given)	–	70%	–	IC50 [1]: 1.1 µM; inhibition in vivo at 1 mg/kg [2]: 66%; IC50 [6]: 7 µM
COc1cc(C[S+]([O-])c2nc3cscc3[nH]2)ncc1Cl (stereo not given)	31 µM	58%	38%	inhibition in vivo at 1 mg/kg [2]: 55%; pKa [4]: 3.44
CCOc1ccnc(C[S+]([O-])c2nc3cscc3[nH]2)c1Cl (stereo not given)	2 µM	–	–	–
COc1cc(C[S+]([O-])c2nc3cscc3[nH]2)ncc1Br (stereo not given)	19 µM	62%	59%	inhibition in vivo at 1 mg/kg [2]: 53%
Cc1sc(C)c2[nH]c([S+]([O-])Cc3ccccn3)nc12 (stereo not given)	15 µM	–	–	–
[O-][S+](Cc1ncccc1F)c1nc2cscc2[nH]1 (stereo not given)	1000 µM	–	–	–
COc1c(OCC(F)(F)C(F)(F)C(F)(F)C(F)F)ccnc1C[S+]([O-])c1nc2cscc2[nH]1 (stereo not given)	1 µM	64%	–	inhibition in vivo at 1 mg/kg [2]: 63%; IC50 [6]: 12 µM
COC(=O)c1sc2[nH]c([S+]([O-])Cc3cc(OC)ccn3)nc2c1C(=O)OC (stereo not given)	1000 µM	–	–	–
[O-][S+](Cc1cc(OCC(F)(F)C(F)F)ccn1)c1nc2cscc2[nH]1 (stereo not given)	2 µM	89%	66%	inhibition in vivo at 1 mg/kg [2]: 91%
Cc1c(OCC(F)(F)C(F)(F)F)ccnc1C[S+]([O-])c1nc2cscc2[nH]1 (stereo not given)	0.5 µM	72%	64%	inhibition in vivo at 1 mg/kg [2]: 45%
[O-][S+](Cc1nccc(Oc2ccccc2)c1Cl)c1nc2cscc2[nH]1 (stereo not given)	61 µM	0%	–	–
[O-][S+](Cc1cc(Oc2ccc(Cl)c(Cl)c2)ccn1)c1nc2cscc2[nH]1 (stereo not given)	2.3 µM	49%	62%	–
COc1c(C)cnc(C[S+]([O-])c2nc3cscc3[nH]2)c1C (stereo not given)	1000 µM	–	–	–
COc1ccc(C[S+]([O-])c2nc3cscc3[nH]2)nc1 (stereo not given)	1000 µM	38%	–	–
COc1ccnc(C[S+]([O-])c2nc3cscc3[nH]2)c1OC (stereo not given)	3.6 µM	54%	82%	–
COc1c(OCc2cc(C(F)(F)F)cc(C(F)(F)F)c2)ccnc1C[S+]([O-])c1nc2cscc2[nH]1 (stereo not given)	0.5 µM	65%	–	–
CCCCOc1ccnc(C[S+]([O-])c2nc3cscc3[nH]2)c1 (stereo not given)	1 µM	81%	87%	–
Cc1cnc(C[S+]([O-])c2nc3cscc3[nH]2)c(C)c1 (stereo not given)	50 µM	–	91%	–
Cc1sc(C)c2[nH]c([S+]([O-])Cc3nccc(OC(C)C)c3Cl)nc12 (stereo not given)	2.5 µM	32%	–	–

Further lines, with some results ahead:

IC50 ([1]; Stomach)	SMILES	inhibition in vivo at 0.5 mg/kg [3]	inhibition in vivo at 0.3 mg/kg [5]	also measured
32 µM	CC(=O)c1scc2[nH]c([S+]([O-])Cc3cc(OCC(F)(F)F)ccn3)nc12 (stereo not given)	–	–	–
1.1 µM	[O-][S+](Cc1cc(OCc2cc(C(F)(F)F)cc(C(F)(F)F)c2)ccn1)c1nc2cscc2[nH]1 (stereo not given)	43%	–	inhibition in vivo at 1 mg/kg [2]: 87%
0.4 µM	[O-][S+](Cc1cc(OCc2ccc(Cl)cc2)ccn1)c1nc2cscc2[nH]1 (stereo not given)	78%	–	–
0.3 µM	[O-][S+](Cc1cc(Oc2ccc(F)cc2F)ccn1)c1nc2cscc2[nH]1 (stereo not given)	56%	74%	–
10 µM	[O-][S+](Cc1nccc(OCC(F)(F)C(F)(F)F)c1Cl)c1nc2cscc2[nH]1 (stereo not given)	–	–	–
195 µM	[O-][S+](Cc1cc(OC(C(F)(F)F)C(F)(F)F)ccn1)c1nc2cscc2[nH]1 (stereo not given)	39%	–	pKa [4]: 3.5
0.8 µM	[O-][S+](Cc1nccc(OCC(F)(F)F)c1OCC(F)(F)F)c1nc2cscc2[nH]1 (stereo not given)	35%	13%	inhibition in vivo at 1 mg/kg [2]: 45%
2 µM	COc1ccnc(C[S+]([O-])c2nc3cscc3[nH]2)c1Br (stereo not given)	71%	73%	inhibition in vivo at 1 mg/kg [2]: -11%; pKa [4]: 3.52
1 µM	[O-][S+](Cc1ncccc1Cl)c1nc2cscc2[nH]1 (stereo not given)	–	–	–
3 µM	COc1ccc(-c2scc3[nH]c([S+]([O-])Cc4ncc(C)c(OC)c4C)nc23)cc1 (stereo not given)	24%	–	–
31 µM	[O-][S+](Cc1ccccn1)c1nc2c(-c3ccccc3)scc2[nH]1 (stereo not given)	–	–	–
1 µM	Cc1cnc(C[S+]([O-])c2nc3cscc3[nH]2)cc1OCC(F)(F)F (stereo not given)	69%	83%	inhibition in vivo at 1 mg/kg [2]: 92%
120 µM	[O-][S+](Cc1ncccc1OCC(F)(F)F)c1nc2cscc2[nH]1 (stereo not given)	23%	–	–
25 µM	Cc1cccnc1C[S+]([O-])c1nc2cscc2[nH]1 (stereo not given)	–	–	–
1000 µM	COc1ccnc(C[S+]([O-])c2nc3ccsc3[nH]2)c1 (stereo not given)	–	–	–
1 µM	[O-][S+](Cc1cc(OCC(F)(F)C(F)(F)F)ccn1)c1nc2cscc2[nH]1 (stereo not given)	81%	–	–
1.1 µM	[O-][S+](Cc1cc(OCc2cc(Cl)cc(Cl)c2)ccn1)c1nc2cscc2[nH]1 (stereo not given)	64%	–	–
1000 µM	COc1ccnc(C[S+]([O-])c2nc3cscc3[nH]2)c1C (stereo not given)	–	–	–
4.2 µM	COc1c(C)cnc(C[S+]([O-])c2nc3c(-c4ccccc4)scc3[nH]2)c1C (stereo not given)	46%	–	inhibition in vivo at 1 mg/kg [2]: 39%
6 µM	Cc1ccc(C[S+]([O-])c2nc3c(C)sc(C)c3[nH]2)nc1 (stereo not given)	58%	46%	–
1 µM	[O-][S+](Cc1cc(OCc2ccc(F)cc2F)ccn1)c1nc2cscc2[nH]1 (stereo not given)	76%	–	–
3 µM	CCOc1ccnc(C[S+]([O-])c2nc3cscc3[nH]2)c1 (stereo not given)	–	–	pKa [4]: 3.92
3 µM	COc1ccnc(C[S+]([O-])c2nc3cscc3[nH]2)c1OC(F)(F)C(F)F (stereo not given)	51%	65%	inhibition in vivo at 1 mg/kg [2]: 14%
2 µM	[O-][S+](Cc1cc(Oc2ccc(Cl)cc2)ccn1)c1nc2cscc2[nH]1 (stereo not given)	66%	76%	–
